Measured values reported in PMC6009982, “Diaryl ethers with carboxymethoxyphenacyl motif as potent HIV-1 reverse transcriptase inhibitors with improved solubility” (Journal of Enzyme Inhibition and Medicinal Chemistry, 2017).
In brackets after ≈: the same amount, converted by molar mass. Marks after values point to notes of the source that are not given here.

test system: not given; assay: not given; conditions: ref Janssen et al.[15]; cited from earlier work

Row | Compound | Solubility
1 | Cc1cc(/C=C/C#N)cc(C)c1Nc1ccnc(Nc2ccc(C#N)cc2)n1 [RPV, rilpivirine, reference compound] | 0.00002 ^b g/L

test system: not listed separately; assay: Aqueous solubility by weighing dried aliquots; format: physicochemical; conditions: thermodynamic from solid; ultrapure deionised water, room temperature, pH =7; read-out: Solubility
Procedure: Substances were dissolved in ultrapure deionised water at room temperature up to concentrations of 50 g/L. Solutions were centrifuged and their aliquots were transferred into weighed glass vials (d = 0.01 mg). The samples were dried under reduced pressure and the vials were weighed again. The solubility was calculated from mass difference divided by sample volume.

Row | Compound | Solubility [mg/mL]
2 | N#Cc1cc(Cl)cc(Oc2cc(OCC(=O)c3ccc(OCC(=O)O)cc3)ccc2Cl)c1 [Compound 7a] | 13.1 (≈ 27.7 mM)
3 | O=C([O-])COc1ccc(C(=O)COc2ccc(Cl)c(Oc3cc(Cl)cc(Cl)c3)c2)cc1.[K+] [Compound 7b] | 4.3
4 | N#Cc1cc(Cl)cc(Oc2ccc(Cl)cc2OCC(=O)c2ccc(OCC(=O)O)cc2)c1 [Compound 8a] | > 50

same assay, conditions: ultrapure deionised water, room temperature, pH =7

Row | Compound | Solubility [mg/mL]
5 | N#Cc1cc(Cl)cc(Oc2cc(Cl)cc(OCC(=O)c3ccc(OCC(=O)[O-])cc3)c2)c1.[K+] [Compound 7c] | >50.0
6 | N#Cc1cc(Cl)cc(Oc2cccc(OCC(=O)c3ccc(OCC(=O)[O-])cc3)c2)c1.[K+] [Compound 7d] | >50.0
7 | Cc1cc(OCC(=O)[O-])ccc1C(=O)COc1ccc(Cl)c(Oc2cc(Cl)cc(C#N)c2)c1.[K+] [Compound 7f] | 8.9
8 | Cc1cc(C(=O)COc2ccc(Cl)c(Oc3cc(Cl)cc(C#N)c3)c2)ccc1OCC(=O)[O-].[K+] [Compound 7g] | 3.8
9 | Cc1cc(OCC(=O)[O-])ccc1C(=O)COc1cc(Cl)ccc1Oc1cc(Cl)cc(C#N)c1.[K+] [Compound 8d] | 14.4
10 | Cc1cc(C(=O)COc2cc(Cl)ccc2Oc2cc(Cl)cc(C#N)c2)ccc1OCC(=O)[O-].[K+] [Compound 8e] | 39.9
11 | N#Cc1cc(Cl)cc(Oc2cc(Cl)ccc2OCC(=O)c2ccc(Oc3ccc(OCC(=O)[O-])cc3)cc2)c1.[K+] [Compound 8f] | >50.0

test system: HIV NL4-3-GFP-I in SupT1 cells; assay: Infection assay in SupT1 cells, GFP flow cytometry; format: cell-based, HIV-1; conditions: Human immunodeficiency virus 1, NL43, SUP-T1, read-out: IC50 (infection rate), reference run in parallel
Procedure: (§1) CD4^+ T cells were harvested from normal donors and cultured in Roswell Park Memorial Institute medium (RPMI) supplemented with 2 mM L-glutamine (Life Technologies, Merelbeke, Belgium), 10% (v/v) heat-inactivated foetal calf serum (Hyclone, Thermo Fisher Scientific, Waltham, MA), 100 U/mL penicillin and 100 µg/mL streptomycin (Life Technologies), 20 ng/mL interleukin-2 (IL-2; specific activity 10 U/ng, Peprotech, London, UK), and with 1 µg/mL phytohemagglutinin (PHA) mitogen (Thermo Fisher Scientific), 72 h prior to infection, as described earlier. SupT1 cells were maintained at maximum 500,000 cells/mL, in Iscove’s Modified Dulbecco’s Medium (IMDM) supplemented with 2 mM L-glutamine (Life Technologies) and 10% (v/v) heat-inactivated foetal calf serum (Hyclone, Thermo Fisher Scientific, Waltham, MA), as described earlier.
(§2) Lyophilised compound was dissolved in dimethyl sulfoxide to a concentration of 5 mM, and further diluted in cell culture medium (SupT1: IMDM and CD4^+ T cells: RPMI). Cells were incubated 2 h prior infection in appropriate medium as described above, now also supplemented with diluted compound. Subsequently, cells (SupT1: 50,000 per 96 well, CD4^+ T cells: 250,000 per 96 well) were infected with HIV (HIV NL4–3-GFP-I, an infectious virus expressing green fluorescent protein (GFP) from gfp-IRES-nef mRNA expressed from the nef locus, as described earlier. Medium was as described above, now also supplemented with diluted compound (For CD4^+ T cells, PHA was left out). Medium was refreshed after 24 h, keeping compound and supplement concentrations constant. After 72 h, cells were harvested, measured by flow cytometry for GFP expression and counted, using a MACSQuant flow cytometer (Miltenyi Biotec, Bergisch Gladbach, Germany). Infection rate measured by GFP expression was between 6 and 20%. Cell numbers were used to measure cytotoxicity (cell numbers in non-infected cultures supplemented with compound were compared to cell numbers obtained in parallel cultures without compound added: a reduction with more than 10% was considered to indicate cytotoxicity).

Row | Compound | IC50 [µM]
12 | Cc1ccnc2c1NC(=O)c1cccnc1N2C1CC1 [NVP, nevirapine, reference compound] | 0.04

same assay, conditions: SupT1 cells, at 10-fold lower concentration than threshold toxic concentration

Row | Compound | Antiviral activity
13 | O=C([O-])COc1ccc(C(=O)COc2ccc(Cl)c(Oc3cc(Cl)cc(Cl)c3)c2)cc1.[K+] [Compound 7b] | +
14 | Cc1cc(OCC(=O)[O-])ccc1C(=O)COc1ccc(Cl)c(Oc2cc(Cl)cc(C#N)c2)c1.[K+] [Compound 7f] | +
15 | Cc1cc(C(=O)COc2ccc(Cl)c(Oc3cc(Cl)cc(C#N)c3)c2)ccc1OCC(=O)[O-].[K+] [Compound 7g] | +
16 | Cc1cc(C(=O)COc2cc(Cl)ccc2Oc2cc(Cl)cc(C#N)c2)ccc1OCC(=O)[O-].[K+] [Compound 8e] | +
17 | Cc1ccnc2c1NC(=O)c1cccnc1N2C1CC1 [NVP, nevirapine, reference compound] | +
18 | Cc1cc(/C=C/C#N)cc(C)c1Nc1ccnc(Nc2ccc(C#N)cc2)n1 [RPV, rilpivirine, reference compound] | +

test system: SupT1 cells; assay: Cytotoxicity from cell numbers in non-infected SupT1 cultures; format: cell-based; conditions: concentration at which toxicity is observed in 10-fold titration series
Procedure: as §1, §2
First, toxicity of the compounds was determined in SupT1 cells. Since even minor toxicity affects the support of viral replication by the cell, compounds should be active well below threshold toxic concentration (i.e. concentration at which toxicity is observed in 10-fold titration series).

Row | Compound | Threshold toxicity [µM]
19 | N#Cc1cc(Cl)cc(Oc2cc(OCC(=O)c3ccc(OCC(=O)O)cc3)ccc2Cl)c1 [Compound 7a] | 5
20 | O=C([O-])COc1ccc(C(=O)COc2ccc(Cl)c(Oc3cc(Cl)cc(Cl)c3)c2)cc1.[K+] [Compound 7b] | 50
21 | N#Cc1cc(Cl)cc(Oc2cc(Cl)cc(OCC(=O)c3ccc(OCC(=O)[O-])cc3)c2)c1.[K+] [Compound 7c] | 50
22 | N#Cc1cc(Cl)cc(Oc2cccc(OCC(=O)c3ccc(OCC(=O)[O-])cc3)c2)c1.[K+] [Compound 7d] | 50
23 | Cc1cc(OCC(=O)[O-])ccc1C(=O)COc1ccc(Cl)c(Oc2cc(Cl)cc(C#N)c2)c1.[K+] [Compound 7f] | >50
24 | Cc1cc(C(=O)COc2ccc(Cl)c(Oc3cc(Cl)cc(C#N)c3)c2)ccc1OCC(=O)[O-].[K+] [Compound 7g] | 50
25 | N#Cc1cc(Cl)cc(Oc2ccc(Cl)cc2OCC(=O)c2ccc(OCC(=O)O)cc2)c1 [Compound 8a] | 50
26 | Cc1cc(OCC(=O)[O-])ccc1C(=O)COc1cc(Cl)ccc1Oc1cc(Cl)cc(C#N)c1.[K+] [Compound 8d] | 50
27 | Cc1cc(C(=O)COc2cc(Cl)ccc2Oc2cc(Cl)cc(C#N)c2)ccc1OCC(=O)[O-].[K+] [Compound 8e] | 50
28 | N#Cc1cc(Cl)cc(Oc2cc(Cl)ccc2OCC(=O)c2ccc(Oc3ccc(OCC(=O)[O-])cc3)cc2)c1.[K+] [Compound 8f] | 5
29 | Cc1ccnc2c1NC(=O)c1cccnc1N2C1CC1 [NVP, nevirapine, reference compound] | 50
30 | Cc1cc(/C=C/C#N)cc(C)c1Nc1ccnc(Nc2ccc(C#N)cc2)n1 [RPV, rilpivirine, reference compound] | 0.5

biological target: T1, HIV-1 RT (Human immunodeficiency virus type 1 group M subtype B, UniProt P04585); assay: HIV RT inhibitory activity, colorimetric Reverse Transcriptase Assay kit (Roche); format: biochemical; conditions: not given
T1 construct: Because HIV-1 reverse transcriptase (RT) has a low fidelity; purchased Roche, Basel, Switzerland
Procedure: HIV RT inhibitory activity of the new compounds was measured using the colorimetric Reverse Transcriptase Assay kit (Roche, Basel, Switzerland). […] Averaged results from at least two measurements were used to obtain an inhibition curve. IC50 values were obtained by interpolating the curve using non-linear regression.

Row | Compound | IC50 [µM]
31 | O=C([O-])COc1ccc(C(=O)COc2ccc(Cl)c(Oc3cc(Cl)cc(Cl)c3)c2)cc1.[K+] [Compound 7b] | 6.75 ± 0.5

same assay, conditions: HIV-1 RT, 2 ng enzyme, at least two measurements; read-out: IC50

Row | Compound | IC50 [µM]
32 | N#Cc1cc(Cl)cc(Oc2cc(OCC(=O)c3ccc(OCC(=O)O)cc3)ccc2Cl)c1 [Compound 7a] | 1.23 ± 0.05
33 | N#Cc1cc(Cl)cc(Oc2cc(Cl)cc(OCC(=O)c3ccc(OCC(=O)[O-])cc3)c2)c1.[K+] [Compound 7c] | 8.3 ± 1.3
34 | N#Cc1cc(Cl)cc(Oc2cccc(OCC(=O)c3ccc(OCC(=O)[O-])cc3)c2)c1.[K+] [Compound 7d] | 9.78 ± 0.67
35 | Cc1cc(OCC(=O)[O-])ccc1C(=O)COc1ccc(Cl)c(Oc2cc(Cl)cc(C#N)c2)c1.[K+] [Compound 7f] | 4.71 ± 0.43
36 | Cc1cc(C(=O)COc2ccc(Cl)c(Oc3cc(Cl)cc(C#N)c3)c2)ccc1OCC(=O)[O-].[K+] [Compound 7g] | 0.65 ± 0.03
37 | N#Cc1cc(Cl)cc(Oc2ccc(Cl)cc2OCC(=O)c2ccc(OCC(=O)O)cc2)c1 [Compound 8a] | 23.4 ± 1.6
38 | Cc1cc(OCC(=O)[O-])ccc1C(=O)COc1cc(Cl)ccc1Oc1cc(Cl)cc(C#N)c1.[K+] [Compound 8d] | 4.7 ± 0.7
39 | Cc1cc(C(=O)COc2cc(Cl)ccc2Oc2cc(Cl)cc(C#N)c2)ccc1OCC(=O)[O-].[K+] [Compound 8e] | 3.07 ± 0.22
40 | N#Cc1cc(Cl)cc(Oc2cc(Cl)ccc2OCC(=O)c2ccc(Oc3ccc(OCC(=O)[O-])cc3)cc2)c1.[K+] [Compound 8f] | 1.27 ± 0.05
41 | Cc1cc(/C=C/C#N)cc(C)c1Nc1ccnc(Nc2ccc(C#N)cc2)n1 [RPV, rilpivirine, reference compound] | 0.32 ± 0.04
